Measured values taken from ChEMBL document CHEMBL4673281, “Influenza antiviral activity of F- and OH-containing isopulegol-derived octahydro-2H-chromenes” (Bioorg Med Chem Lett, 2021).
Active and inactive are the calls of the source. No cut-off for these calls is given here.

Tests used:
[1] = tested on: Influenza A virus; experiment: Antiviral activity against Influenza A virus (A/Puerto Rico/8/34 (H1N1) infected in MDCK cells assessed as decrease in viral titer preincubated for 1 hr followed by viral infection and cultivated for 48 hrs followed by supernatant transferred to chicken erythrocyte for 1 hr followed by measuring ability to cause positive hemagglutination; assay type: functional, organism-based; details: A/Puerto Rico/8/1934(H1N1)
[2] = Selectivity index, ratio of CC50 for MDCK cells to IC50 for Influenza A virus (A/Puerto Rico/8/34 (H1N1)) infected in MDCK cells; assay type: toxicity, cell-based; details: dog, read-out: Ratio CC50/IC50
[3] = Cytotoxicity against MDCK cells assessed as cell death incubated for 48 hrs by MTT assay; assay type: cell-based, Canis lupus familiaris; details: dog
[4] = tested on: Influenza A virus; experiment: Antiviral activity against Influenza A virus (A/Puerto Rico/8/34(H1N1)) pdm09 infected in MDCK cells assessed as inhibition of virus infection at early stage by time of addition experiment; assay type: functional, organism-based; details: A/Puerto Rico/8/1934(H1N1)
[5] = tested on: Influenza A virus (A/Puerto Rico/8/1934(H1N1)); experiment: Inhibition of Hemagglutinin in Influenza A virus (A/Puerto Rico/8/34(H1N1)); details: dose 0-300 µg/ml

| Structure (SMILES) | IC50 [1] [µM] | selectivity ratio [2] | CC50 at 48 h [3] [µM] | Activity [4] | inhibition [5] |
| --- | --- | --- | --- | --- | --- |
| COc1cc([C@H]2CC(C)(O)[C@@H]3CC[C@@H](C)C[C@H]3O2)cc(OC)c1O (some centres undefined) | 235 | 2 | 473 |  |  |
| COc1ccc([C@H]2CC(C)(O)[C@@H]3CC[C@@H](C)C[C@H]3O2)c(OC)c1OC (some centres undefined) | 717 | 1 | > 857 |  |  |
| COc1ccc(OC)c([C@H]2CC(C)(O)[C@@H]3CC[C@@H](C)C[C@H]3O2)c1 (some centres undefined) | > 312 | 2 | 512 |  |  |
| COc1ccc([C@H]2CC(C)(O)[C@@H]3CC[C@@H](C)C[C@H]3O2)cc1 (some centres undefined) | 29 | 24 | 689 |  |  |
| COc1cccc([C@H]2CC(C)(F)[C@@H]3CC[C@@H](C)C[C@H]3O2)c1OC (some centres undefined) | 43 | 4 | 180 |  |  |
| C[C@@H]1CC[C@@H]2[C@@H](C1)O[C@@H](c1ccc(F)cc1)CC2(C)F (some centres undefined) | > 36 | 2 | 68 |  |  |
| COc1ccc([C@H]2CC(C)(O)[C@@H]3CC[C@@H](C)C[C@H]3O2)c(OC)c1 (some centres undefined) | 78 | 12 | > 937 |  |  |
| C[C@@H]1CC[C@@H]2[C@@H](C1)O[C@@H](c1ccc(Cl)cc1)CC2(C)F (some centres undefined) | 29 | 2 | 57 |  |  |
| C[C@@H]1CC[C@@H]2[C@@H](C1)O[C@@H](c1ccc([N+](=O)[O-])cc1)CC2(C)F (some centres undefined) | > 976 | 1 | > 976 |  |  |
| C[C@@H]1CC[C@@H]2[C@@H](C1)O[C@@H](c1ccc(Br)cc1)CC2(C)F (some centres undefined) | 391 | 2 | > 882 |  |  |
| COc1cc([C@H]2CC(C)(F)[C@@H]3CC[C@@H](C)C[C@H]3O2)cc(OC)c1OC (some centres undefined) | 199 | 3 | 568 |  |  |
| COc1ccc([C@H]2CC(C)(O)[C@@H]3CC[C@@H](C)C[C@H]3O2)cc1O (some centres undefined) | 118 | 6 | 738 |  |  |
| COc1cc(OC)c([C@H]2CC(C)(O)[C@@H]3CC[C@@H](C)C[C@H]3O2)cc1OC (some centres undefined) | > 857 | 1 | > 857 |  |  |
| C[C@@H]1CC[C@@H]2[C@@H](C1)O[C@@H](c1ccc(F)cc1)CC2(C)O (some centres undefined) | > 36 | 2 | 65 |  |  |
| COc1ccc([C@H]2CC(C)(F)[C@@H]3CC[C@@H](C)C[C@H]3O2)cc1 (some centres undefined) | > 103 | 2 | 171 |  |  |
| COc1cc([C@H]2CC(C)(F)[C@@H]3CC[C@@H](C)C[C@H]3O2)cc(OC)c1O (some centres undefined) | 59 | 3 | 158 |  |  |
| COc1cc([C@H]2CC(C)(O)[C@@H]3CC[C@@H](C)C[C@H]3O2)cc(OC)c1OC (some centres undefined) | > 285 | 1 | 405 |  |  |
| C[C@@H]1CC[C@@H]2[C@@H](C1)O[C@@H](c1ccc(O)cc1)CC2(C)F (some centres undefined) | > 36 | 3 | 95 |  |  |
| COc1ccc(OC)c([C@H]2CC(C)(F)[C@@H]3CC[C@@H](C)C[C@H]3O2)c1 (some centres undefined) | > 31 | 1 | 37 |  |  |
| NC(=O)c1ncn([C@@H]2O[C@H](CO)[C@@H](O)[C@H]2O)n1 [RIBAVIRIN] | 35 | 61 | > 2130 |  |  |

| Structure (SMILES) | IC50 [1] [µM] | selectivity ratio [2] | CC50 at 48 h [3] [µM] | Activity [4] | inhibition [5] |
| --- | --- | --- | --- | --- | --- |
| CC(N)C12CC3CC(CC(C3)C1)C2 (centres undefined) [RIMANTADINE] | 69 | 5 | 326 |  |  |
| COc1cc(OC)c([C@H]2CC(C)(F)[C@@H]3CC[C@@H](C)C[C@H]3O2)c(OC)c1 (some centres undefined) | 24 | 35 | 851 | Active | Dose-dependent effect |
| COc1cc([C@H]2CC(C)(O)[C@@H]3CC[C@@H](C)C[C@H]3O2)ccc1O (some centres undefined) | > 327 | 1 | 411 |  |  |
| COc1ccc([C@H]2CC(C)(F)[C@@H]3CC[C@@H](C)C[C@H]3O2)c(OC)c1 (some centres undefined) | 155 | 2 | 379 |  |  |
| COc1ccc([C@H]2CC(C)(F)[C@@H]3CC[C@@H](C)C[C@H]3O2)cc1O (some centres undefined) | > 32 | 4 | 136 |  |  |
| COc1cc(OC)c([C@H]2CC(C)(O)[C@@H]3CC[C@@H](C)C[C@H]3O2)c(OC)c1 (some centres undefined) | 19 | 45 | 856 | Active | Dose-dependent effect |
| C[C@@H]1CC[C@@H]2[C@@H](C1)O[C@@H](c1ccccc1)CC2(C)F (some centres undefined) | > 38 | 2 | 65 |  |  |
| C[C@@H]1CC[C@@H]2[C@@H](C1)O[C@@H](c1ccccc1)CC2(C)O (some centres undefined) | 100 | 6 | 580 |  |  |
| C[C@@H]1CC[C@@H]2[C@@H](C1)O[C@@H](c1ccc(Cl)cc1)CC2(C)O (some centres undefined) | > 37 | 2 | 62 |  |  |
| COc1cc(OC)c([C@H]2CC(C)(F)[C@@H]3CC[C@@H](C)C[C@H]3O2)cc1OC (some centres undefined) | 6 | 13 | 78 |  |  |
| C[C@@H]1CC[C@@H]2[C@@H](C1)O[C@@H](c1ccccc1O)CC2(C)O (some centres undefined) | > 1090 | 1 | > 1090 |  |  |
| C[C@@H]1CC[C@@H]2[C@@H](C1)O[C@@H](c1ccc(O)cc1)CC2(C)O (some centres undefined) | 87 | 1 | 127 |  |  |
| COc1cc([C@H]2CC(C)(F)[C@@H]3CC[C@@H](C)C[C@H]3O2)ccc1O (some centres undefined) | > 324 | 2 | 642 |  |  |
| COc1cccc([C@H]2CC(C)(O)[C@@H]3CC[C@@H](C)C[C@H]3O2)c1OC (some centres undefined) | > 937 | 1 | > 937 |  |  |
| COc1ccc([C@H]2CC(C)(O)[C@@H]3CC[C@@H](C)C[C@H]3O2)cc1OC (some centres undefined) | 344 | 3 | > 937 |  |  |
| C[C@@H]1CC[C@@H]2[C@@H](C1)O[C@@H](c1ccccc1O)CC2(C)F (some centres undefined) | > 36 | 1 | 44 |  |  |
| COc1ccc([C@H]2CC(C)(F)[C@@H]3CC[C@@H](C)C[C@H]3O2)cc1OC (some centres undefined) | > 9 | 2 | 20 |  |  |
| C[C@@H]1CC[C@@H]2[C@@H](C1)O[C@@H](c1ccc(Br)cc1)CC2(C)O (some centres undefined) | > 89 | 1 | 132 |  |  |
| COc1ccc([C@H]2CC(C)(F)[C@@H]3CC[C@@H](C)C[C@H]3O2)c(OC)c1OC (some centres undefined) | 6 | 22 | 133 |  |  |
| C[C@@H]1CC[C@@H]2[C@@H](C1)O[C@@H](c1ccc([N+](=O)[O-])cc1)CC2(C)O (some centres undefined) | 393 | 3 | > 982 |  |  |
